The results in this text go back to ChEMBL document CHEMBL1201862, “PubChem BioAssay data set” (2004).

Test systems include SF-268; UACC-257; CCRF-CEM; NCI-H23; HCT-15; TK-10; SK-MEL-2; CAKI-1; SF-295; COLO 205; SR; HL-60; MOLT-4; SNB-19; LOX IMVI; OVCAR-4; SNB-75; MDA-MB-435; DU-145; NCI/ADR-RES.
Holding throughout (experiment): growth of human tumour cells (NCI), 48 h

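Test compounds were applied to cells in 96-well plates for 48 hours at 5 doses. GI50 is the concentration that inhibits growth by half.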 Active and inactive are the calls of the source. Rule as the data show it: active = GI50 up to about 1.1 µM and inactive = higher.

With `NC1=C(Br)C(=O)c2ncccc2C1=O`, the GI50 with SF-268 is 0.42 µM (active); in the assay on UACC-257, 0.483 µM (active); in the assay with CCRF-CEM, 1.4 µM (inactive); with NCI-H23 it was 0.156 µM (active); with HCT-15, 0.352 µM; with TK-10, 2.62 µM (inactive). Further, the GI50 with SK-MEL-2 was 0.346 µM (active); in the assay with CAKI-1, 1.51 µM (inactive); in the assay on SF-295, 0.367 µM (active); with COLO 205, 1.71 µM (inactive); with SR, 0.173 µM (active); in the assay on HL-60 it was 0.505 µM (active). Moreover, the GI50 in the assay on MOLT-4 is 1.63 µM (inactive); with SNB-19, 1.25 µM (inactive); in the assay with LOX IMVI, 0.137 µM (active); with OVCAR-4 it was 1.37 µM (inactive); in the assay with SNB-75, 0.183 µM (active).

On to `C[N+](C)(C)Cc1c(CC#N)[nH]c2ccccc12`, for which the GI50 in the assay on SF-268 is > 100 µM (inactive); in the assay on UACC-257, > 100 µM (inactive); in the assay on CCRF-CEM, 35.4 µM (inactive); in the assay on NCI-H23 it was > 100 µM (inactive); with HCT-15, over 100 µM; in the assay with TK-10, > 100 µM (inactive). Further, the GI50 is > 100 µM (inactive) in the assay with SK-MEL-2; 96.8 µM (inactive) in the assay on CAKI-1; > 100 µM (inactive) in the assay on SF-295; > 100 µM (inactive) in the assay with COLO 205; 44.6 µM (inactive) in the assay with SR; 36.9 µM (inactive) in the assay on HL-60. Besides, the GI50 with MOLT-4 was 24.5 µM (inactive); with SNB-19 it was > 100 µM (inactive); in the assay on LOX IMVI it was > 100 µM (inactive); in the assay with OVCAR-4, 1.2 µM (inactive); with SNB-75, 96.2 µM (inactive).

Consider `Cc1nc2ccccc2c(=O)n1NC(=O)c1ccc(N)cc1`, for which the GI50 in the assay on SF-268, in the assay with UACC-257, in the assay on CCRF-CEM, in the assay with NCI-H23, in the assay on MDA-MB-435 and in the assay on TK-10 was > 100 µM (inactive) throughout. Moreover, the GI50 with SF-295, in the assay with COLO 205, in the assay with SR, in the assay on HL-60, in the assay on DU-145 and in the assay on MOLT-4 was > 100 µM (inactive) each time. Also, the GI50 in the assay on SNB-19 is > 100 µM (inactive); in the assay with LOX IMVI, > 100 µM (inactive); in the assay on OVCAR-4, > 100 µM (inactive); in the assay on SNB-75, 14.6 µM (inactive).

For `CC(C)OC(=O)C1(C(C)C)CCc2ccc(C(=O)CCC(=O)O)cc21` (centres undefined), the GI50 with SF-268 was > 100 µM (inactive); in the assay with UACC-257 it was > 100 µM (inactive); with CCRF-CEM, > 100 µM (inactive); in the assay on NCI-H23, > 100 µM (inactive); with HCT-15 it was over 100 µM; in the assay with TK-10, > 100 µM (inactive). The GI50 in the assay with SK-MEL-2, in the assay on CAKI-1, in the assay with SF-295, with COLO 205, in the assay on SR and with NCI/ADR-RES was > 100 µM (inactive) throughout. In addition, the GI50 in the assay with HL-60, with DU-145, in the assay with MOLT-4, in the assay on SNB-19, with LOX IMVI and with OVCAR-4 was > 100 µM (inactive) in each case. In addition, in the assay on SNB-75, the GI50 is > 100 µM (inactive).

`CCOC(=O)/C(=C\Nc1c(C)n(C)n(-c2ccccc2)c1=O)C(=O)c1ccccc1`: the GI50 in the assay on SF-268 was > 100 µM (inactive); with UACC-257 it was > 100 µM (inactive); in the assay on CCRF-CEM it was > 100 µM (inactive); with NCI-H23 it was > 100 µM (inactive); in the assay on HCT-15 it was over 100 µM; in the assay with MDA-MB-435, > 100 µM (inactive). Moreover, the GI50 with TK-10, with SK-MEL-2, with CAKI-1, with SF-295, in the assay on COLO 205 and in the assay on SR was > 100 µM (inactive) in each case. Moreover, the GI50 in the assay with HL-60, with DU-145, with MOLT-4, in the assay on SNB-19, with LOX IMVI and with OVCAR-4 was > 100 µM (inactive) each time.

As for `CC1=C(C#N)C2C(=C(C)N1)C(N)=Nc1ccccc12` (centres undefined), the GI50 with SF-268 is 39.4 µM (inactive); in the assay with UACC-257 it was 99.5 µM (inactive); with CCRF-CEM, 32.5 µM (inactive); with NCI-H23, 55.2 µM (inactive); in the assay on HCT-15, 85.5 µM; in the assay on TK-10, 46.8 µM (inactive). Besides, the GI50 in the assay on SK-MEL-2 is 81.8 µM (inactive); in the assay on CAKI-1 it was 49.8 µM (inactive); with SF-295 it was 30.6 µM (inactive); with COLO 205, 42.8 µM (inactive); in the assay on SR it was 41.1 µM (inactive); in the assay with NCI/ADR-RES, > 100 µM (inactive). The GI50 in the assay on HL-60 was 29.3 µM (inactive); in the assay on DU-145, 88.7 µM (inactive); with MOLT-4 it was 33.2 µM (inactive); in the assay on SNB-19, 37.1 µM (inactive); in the assay on LOX IMVI, 36 µM (inactive); in the assay with OVCAR-4, 37.4 µM (inactive). Moreover, the GI50 in the assay on SNB-75 is 8.17 µM (inactive).

Take `COc1ccc(/C(Cl)=C(\C=N/O)c2ccc(OC)c(OC)c2)cc1OC`: the GI50 in the assay on SF-268 was > 100 µM (inactive); in the assay on UACC-257, > 100 µM (inactive); in the assay on CCRF-CEM, > 100 µM (inactive); in the assay with NCI-H23, > 100 µM (inactive); with HCT-15, 82 µM; in the assay on TK-10 it was > 100 µM (inactive). For the same compound, the GI50 in the assay on SK-MEL-2 is > 100 µM (inactive); with CAKI-1, > 100 µM (inactive); with SF-295 it was 81.7 µM (inactive); in the assay on COLO 205, > 100 µM (inactive); in the assay on SR, > 100 µM (inactive); in the assay with HL-60, > 100 µM (inactive). In addition, the GI50 in the assay with MOLT-4, with SNB-19, in the assay on LOX IMVI, in the assay on OVCAR-4 and in the assay with SNB-75 was > 100 µM (inactive) throughout.

For the compound `Nc1nc(SCCNC(=O)CCc2ccc(O)cc2)nc2c1ncn2C1OC(CO)C(O)C1O` (centres undefined), the GI50 in the assay on SF-268 was > 203 µM (inactive); in the assay on UACC-257, > 203 µM (inactive); in the assay with CCRF-CEM, > 203 µM (inactive); in the assay on NCI-H23, > 203 µM (inactive); with HCT-15, over 203 µM; in the assay with TK-10, > 203 µM (inactive). Moreover, the GI50 with SK-MEL-2, with CAKI-1, in the assay with SF-295, in the assay on COLO 205, with SR and in the assay on HL-60 was > 203 µM (inactive) throughout. Further, the GI50 in the assay with MOLT-4, with SNB-19, with LOX IMVI, in the assay on OVCAR-4 and in the assay with SNB-75 was > 203 µM (inactive) throughout.

As for `O=c1c2ccccc2c2c3c1cccc3c1cccc3c(=O)c4ccccc4c2c31`, the GI50 with SF-268 was > 100 µM (inactive); in the assay on UACC-257, > 100 µM (inactive); with CCRF-CEM, > 100 µM (inactive); with NCI-H23, > 100 µM (inactive); in the assay with HCT-15 it was over 100 µM; in the assay on TK-10, > 100 µM (inactive). The GI50 in the assay on SK-MEL-2 is > 100 µM (inactive); in the assay with CAKI-1 it was > 100 µM (inactive); in the assay with SF-295, > 100 µM (inactive); in the assay with COLO 205, > 100 µM (inactive); with SR it was > 100 µM (inactive); in the assay on HL-60, > 10 µM (inactive). Moreover, the GI50 is 46.3 µM (inactive) in the assay with MOLT-4; > 100 µM (inactive) in the assay with SNB-19; > 100 µM (inactive) in the assay with LOX IMVI; > 100 µM (inactive) with OVCAR-4; > 100 µM (inactive) in the assay on SNB-75.

Take `C[C@H]1S[C@H](c2c(Cl)cccc2Cl)N2Cc3ccccc3N=C12`: the GI50 in the assay on SF-268 is 14.2 µM (inactive); in the assay with UACC-257, 16.6 µM (inactive); in the assay on CCRF-CEM it was 21 µM (inactive); in the assay on NCI-H23, 11 µM (inactive); in the assay with HCT-15, 14.9 µM; with MDA-MB-435, 14.3 µM (inactive). The GI50 in the assay on TK-10 was 17 µM (inactive); in the assay with SK-MEL-2 it was 10.1 µM (inactive); with CAKI-1, 40.6 µM (inactive); in the assay with SF-295 it was 9.16 µM (inactive); with COLO 205, 11.1 µM (inactive); in the assay on SR, 8.07 µM (inactive). The GI50 with HL-60 is 5.9 µM (inactive); in the assay on DU-145, 13.1 µM (inactive); in the assay with MOLT-4, 8.83 µM (inactive); in the assay with SNB-19 it was 10.3 µM (inactive); in the assay on LOX IMVI, 12.9 µM (inactive); with OVCAR-4, 29.8 µM (inactive). In addition, in the assay with SNB-75, the GI50 was 14.1 µM (inactive).

For the compound `O=C(/C=C/c1c(O)ccc2ccccc12)c1ccc([N+](=O)[O-])cc1`, the GI50 with SF-268 is 41.5 µM (inactive); with UACC-257, 25.2 µM (inactive); with CCRF-CEM, 17.9 µM (inactive); in the assay on NCI-H23 it was 23.1 µM (inactive); in the assay with HCT-15, 25.2 µM; in the assay with TK-10, > 53.5 µM (inactive). The GI50 in the assay on SK-MEL-2 was 33.2 µM (inactive); with CAKI-1 it was 37.8 µM (inactive); in the assay with SF-295, > 66.2 µM (inactive); in the assay on COLO 205, 33.1 µM (inactive); in the assay on SR, 32.7 µM (inactive); in the assay with HL-60, 9.77 µM (inactive). Also, the GI50 with MOLT-4 was 43.6 µM (inactive); in the assay with SNB-19, > 88.9 µM (inactive); in the assay with LOX IMVI, 16.7 µM (inactive); with OVCAR-4, 18.5 µM (inactive); in the assay on SNB-75, > 83 µM (inactive).

For the compound `CC1CC2CC(=O)CC3(C1)C2CCCN3CCCO` (centres undefined), the GI50 in the assay on SF-268, with UACC-257, in the assay on CCRF-CEM, with NCI-H23, in the assay on TK-10 and in the assay with SK-MEL-2 was > 100 µM (inactive) in each case. Also, the GI50 in the assay on CAKI-1, in the assay with SF-295, in the assay on COLO 205, with SR, in the assay with HL-60 and in the assay with MOLT-4 was > 100 µM (inactive) throughout. For the same compound, the GI50 with SNB-19, in the assay with LOX IMVI, in the assay on OVCAR-4 and in the assay on SNB-75 was > 100 µM (inactive) throughout.
